In ChEMBL document CHEMBL6114980, “Single or double lipid-modified ultra-short antimicrobial peptides for treating infections caused by resistant bacteria” (Eur J Med Chem, 2025):
In brackets after ≈: the same amount, converted by molar mass. Activity calls are given as the source filed them. No cut-off for these calls is given here.

Assays:
Klebsiella pneumoniae [1] = experiment: Induction of morphological changes in Klebsiella pneumoniae assessed as cell contraction at 2 times MIC measured after 30 mins by SEM analysis; assay type: functional, organism-based
Klebsiella pneumoniae [2] = experiment: Induction of morphological changes in Klebsiella pneumoniae assessed as cell aggregation at 2 times MIC measured after 30 mins by SEM analysis; assay type: functional, organism-based
Klebsiella pneumoniae [3] = experiment: Induction of morphological changes in Klebsiella pneumoniae assessed as cell adhesion at 2 times MIC measured after 30 mins by SEM analysis; assay type: functional, organism-based
Klebsiella pneumoniae [4] = experiment: Induction of morphological changes in Klebsiella pneumoniae assessed as cell contraction at 2 times MIC measured after 120 mins by SEM analysis; assay type: functional, organism-based
Klebsiella pneumoniae [5] = experiment: Induction of morphological changes in Klebsiella pneumoniae assessed as cell aggregation at 2 times MIC measured after 120 mins by SEM analysis; assay type: functional, organism-based
Klebsiella pneumoniae [6] = experiment: Induction of morphological changes in Klebsiella pneumoniae assessed as cell adhesion at 2 times MIC measured after 120 mins by SEM analysis; assay type: functional, organism-based
Escherichia coli [7] = experiment: Induction of cell membrane disruption in Escherichia coli assessed as PI uptake at 2 times MIC measured after 120 mins by PI staining based flow cytometry analysis (Rvb =<10 %); assay type: functional; settings: 2 h
Escherichia coli [8] = experiment: Induction of cell membrane disruption in Escherichia coli assessed as PI uptake at 4 times MIC measured after 120 mins by PI staining based flow cytometry analysis; assay type: functional, organism-based
Cell membrane [9] = experiment: Induction of outer membrane permeabilization in Escherichia coli assessed as increase in fluorescence intensity measured for 10 mins by fluorescence based NPN uptake assay
Cell membrane [10] = experiment: Induction of outer membrane permeabilization in Escherichia coli assessed as increase in fluorescence intensity at 0.5 times MIC measured for 10 mins by fluorescence based NPN uptake assay
Cell membrane [11] = experiment: Induction of inner membrane permeabilization in Escherichia coli at 0.5 to 4 times MIC measured for 135 mins by absorbance based analysis
Cell membrane [12] = experiment: Induction of cytoplasmic membrane depolarization in Staphylococcus aureus assessed as increase in fluorescence intensity at 0.5 to 4 times MIC measured for 10 mins by DiSC3-5 dye based fluorescence assay; assay type: subcellular
Lipopolysaccharide (LPS) = experiment: Binding affinity to LPS (unknown origin) assessed as reduction in bacterial mortality at 2 times MIC preincubated with LPS for 1 hr followed by bacteria addition for 24 hrs by spectrophotometric analysis
Staphylococcus aureus [13] = experiment: Antibacterial activity against Staphylococcus aureus 25923 at sub-MIC concentration measured after 15 passages; assay type: functional, organism-based
Staphylococcus aureus [14] = experiment: Antibacterial activity against Staphylococcus aureus 25923 at sub-MIC concentration measured after 15 passages in presence of rifampin; assay type: functional, organism-based
Escherichia coli [15] = experiment: Antibacterial activity against Escherichia coli 25922 at sub-MIC concentration measured after 15 passages in presence of rifampin; assay type: functional, organism-based
Klebsiella pneumoniae [16] = experiment: Antibacterial activity against Klebsiella pneumoniae ATCC 700603 infected in male BALB/c mouse lung infection model assessed as reduction in number of inflammatory cells at 5 mg/kg, ip measured after 6 to 36 hrs; assay type: functional, organism-based; settings: time 6-36 hrs
Staphylococcus aureus [17] = experiment: Antibacterial activity against methicillin resistant Staphylococcus aureus infected in male BALB/c mouse model of skin wound infection assessed as reduction in wound area at 2 mg/kg, ip measured after 6 to 36 hrs postinfection; assay type: functional, organism-based; settings: time 6-36 hrs
Acinetobacter baumannii [18] = experiment: Antibacterial activity against Acinetobacter baumannii ATCC 19606 assessed as reduction in bacterial growth incubated for 18 to 24 hrs by broth microdilution method; assay type: functional; settings: time 18-24 hrs
Klebsiella pneumoniae [19] = experiment: Antibacterial activity against Klebsiella pneumoniae ATCC 700603 assessed as reduction in bacterial growth incubated for 18 to 24 hrs by broth microdilution method; assay type: functional; settings: time 18-24 hrs
Escherichia coli [20] = experiment: Antibacterial activity against Escherichia coli ATCC 25922 assessed as reduction in bacterial growth incubated for 18 to 24 hrs by broth microdilution method; assay type: functional; settings: time 18-24 hrs
Pseudomonas aeruginosa [21] = experiment: Antibacterial activity against Pseudomonas aeruginosa ATCC 27853 assessed as reduction in bacterial growth incubated for 18 to 24 hrs by broth microdilution method; assay type: functional; settings: time 18-24 hrs
Staphylococcus aureus [22] = experiment: Antibacterial activity against methicillin-resistant Staphylococcus aureus ATCC 33591 assessed as reduction in bacterial growth incubated for 18 to 24 hrs by broth microdilution method; assay type: functional; settings: time 18-24 hrs
Staphylococcus aureus [23] = experiment: Antibacterial activity against methicillin-resistant Staphylococcus aureus 75 assessed as reduction in bacterial growth incubated for 18 to 24 hrs by broth microdilution method; assay type: functional; settings: time 18-24 hrs
Staphylococcus aureus [24] = experiment: Antibacterial activity against Staphylococcus aureus 113 assessed as reduction in bacterial growth incubated for 18 to 24 hrs by broth microdilution method; assay type: functional; settings: time 18-24 hrs
Staphylococcus aureus [25] = experiment: Antibacterial activity against Staphylococcus aureus 125 assessed as reduction in bacterial growth incubated for 18 to 24 hrs by broth microdilution method; assay type: functional; settings: time 18-24 hrs
Staphylococcus aureus [26] = experiment: Antibacterial activity against Staphylococcus aureus 794 assessed as reduction in bacterial growth incubated for 18 to 24 hrs by broth microdilution method; assay type: functional; settings: time 18-24 hrs
Enterococcus faecalis = experiment: Antibacterial activity against Enterococcus faecalis ATCC 29212 assessed as reduction in bacterial growth incubated for 18 to 24 hrs by broth microdilution method; assay type: functional; settings: time 18-24 hrs
[27] = tested on: Staphylococcus epidermidis; experiment: Antibacterial activity against Staphylococcus epidermidis ATCC 12228 assessed as reduction in bacterial growth incubated for 18 to 24 hrs by broth microdilution method; assay type: functional; settings: time 18-24 hrs
Bacillus subtilis = experiment: Antibacterial activity against Bacillus subtilis ATCC 23857 assessed as reduction in bacterial growth incubated for 18 to 24 hrs by broth microdilution method; assay type: functional; settings: time 18-24 hrs
Staphylococcus aureus [28] = experiment: Antibacterial activity against Staphylococcus aureus ATCC 25923 assessed as reduction in bacterial growth incubated for 18 to 24 hrs by broth microdilution method; assay type: functional; settings: time 18-24 hrs
Acinetobacter baumannii [29] = experiment: Antibacterial activity against Acinetobacter baumannii 5444 assessed as reduction in bacterial growth incubated for 18 to 24 hrs by broth microdilution method; assay type: functional; settings: time 18-24 hrs
Acinetobacter baumannii [30] = experiment: Antibacterial activity against Acinetobacter baumannii 92359 assessed as reduction in bacterial growth incubated for 18 to 24 hrs by broth microdilution method; assay type: functional; settings: time 18-24 hrs
Escherichia coli [31] = experiment: Antibacterial activity against Escherichia coli 850 assessed as reduction in bacterial growth incubated for 18 to 24 hrs by broth microdilution method; assay type: functional; settings: time 18-24 hrs
Escherichia coli [32] = experiment: Antibacterial activity against Escherichia coli 780 assessed as reduction in bacterial growth incubated for 18 to 24 hrs by broth microdilution method; assay type: functional; settings: time 18-24 hrs
Pseudomonas aeruginosa [33] = experiment: Antibacterial activity against Pseudomonas aeruginosa 124 assessed as reduction in bacterial growth incubated for 18 to 24 hrs by broth microdilution method; assay type: functional; settings: time 18-24 hrs
Pseudomonas aeruginosa [34] = experiment: Antibacterial activity against Pseudomonas aeruginosa 6434N assessed as reduction in bacterial growth incubated for 18 to 24 hrs by broth microdilution method; assay type: functional; settings: time 18-24 hrs
Staphylococcus aureus [35] = experiment: Drug resistance, ratio of MIC for Staphylococcus aureus 25923 after 4 passages exposure to MIC for Staphylococcus aureus 25923 during first exposure; assay type: functional
Staphylococcus aureus [36] = experiment: Drug resistance, ratio of MIC for Staphylococcus aureus 25923 after 15 passages exposure to MIC for Staphylococcus aureus 25923 during first exposure; assay type: functional
Escherichia coli [37] = experiment: Drug resistance, ratio of MIC for Escherichia coli 25922 after 7 passages exposure to MIC for Escherichia coli 25922 during first exposure; assay type: functional
Escherichia coli [38] = experiment: Drug resistance, ratio of MIC for Escherichia coli 25922 after 15 passages exposure to MIC for Escherichia coli 25922 during first exposure; assay type: functional

In the case of `CC(C)CCCCC(=O)N[C@@H](CCN)C(=O)N[C@H](C(=O)N[C@@H](CCN)C(=O)N[C@H]1CCNC(=O)[C@H]([C@@H](C)O)NC(=O)[C@H](CCN)NC(=O)[C@H](CCN)NC(=O)[C@H](CC(C)C)NC(=O)[C@@H](Cc2ccccc2)NC(=O)[C@@H](CCN)NC1=O)[C@@H](C)O.CC[C@H](C)CCCCC(=O)N[C@@H](CCN)C(=O)N[C@H](C(=O)N[C@@H](CCN)C(=O)N[C@H]1CCNC(=O)[C@H]([C@@H](C)O)NC(=O)[C@H](CCN)NC(=O)[C@H](CCN)NC(=O)[C@H](CC(C)C)NC(=O)[C@@H](Cc2ccccc2)NC(=O)[C@@H](CCN)NC1=O)[C@@H](C)O`, the Activity (Klebsiella pneumoniae [1]) is reported as “Active”, the Activity (Klebsiella pneumoniae [2]) is reported as “Active” and the Activity (Klebsiella pneumoniae [3]) is reported as “Active”. For the same compound, the Activity (Klebsiella pneumoniae [4]) was “Active”, the Activity (Klebsiella pneumoniae [5]) was “Active” and the Activity (Klebsiella pneumoniae [6]) was “Active”. For the same compound, the Activity (Escherichia coli [7]) was greater than 20%, the Activity (Escherichia coli [8]) was “inactive” and the Activity (Cell membrane [9]) was “Dose-dependent-effect”. The Activity (Cell membrane [10]) was “Active; Compound Showed Slightly Inferior Activity Than Compound D8”, the Activity (Cell membrane [11]) was “Active; Compound Showed Lower Efficacy Than Positive Control 0.1% Tritionx 100” and the Activity (Cell membrane [12]) was “Weak_effect”. The Activity (Lipopolysaccharide (LPS)) was “Active”, the Activity (Staphylococcus aureus [13]) was “inactive” and the Activity (Staphylococcus aureus [14]) was “Active”. The Activity (Escherichia coli [15]) was “Active”, the Activity (Klebsiella pneumoniae [16]) was “inactive” and the Activity (Staphylococcus aureus [17]) was “Active”.

Compound `CO[C@H]1/C=C/O[C@@]2(C)Oc3c(C)c(O)c4c(O)c(c(/C=N/N5CCN(C)CC5)c(O)c4c3C2=O)NC(=O)/C(C)=C\C=C\[C@H](C)[C@H](O)[C@@H](C)[C@@H](O)[C@@H](C)[C@H](OC(C)=O)[C@@H]1C` [RIFAMPIN] has an MIC (Acinetobacter baumannii [18]) of 1 µM (≈ 0.823 µg/mL), an MIC (Klebsiella pneumoniae [19]) of 16 µM (≈ 13.2 µg/mL) and an MIC (Escherichia coli [20]) of 8 µM (≈ 6.58 µg/mL). It also gave an MIC (Pseudomonas aeruginosa [21]) of 32 µM (≈ 26.3 µg/mL), an MIC (Staphylococcus aureus [22]) of 128 µM (≈ 105 µg/mL) and an MIC (Staphylococcus aureus [23]) of 128 µM (≈ 105 µg/mL). The MIC (Staphylococcus aureus [24]) was 1 µM (≈ 0.823 µg/mL), the MIC (Staphylococcus aureus [25]) was 1 µM (≈ 0.823 µg/mL) and the MIC (Staphylococcus aureus [26]) was 4 µM (≈ 3.29 µg/mL). It also gave an MIC (Enterococcus faecalis) of 1 µM (≈ 0.823 µg/mL), an MIC [27] of 1 µM (≈ 0.823 µg/mL) and an MIC (Bacillus subtilis) of 1 µM (≈ 0.823 µg/mL). The MIC (Staphylococcus aureus [28]) was 1 µM (≈ 0.823 µg/mL), the MIC (Acinetobacter baumannii [29]) was 16 µM (≈ 13.2 µg/mL) and the MIC (Acinetobacter baumannii [30]) was 16 µM (≈ 13.2 µg/mL). The MIC (Escherichia coli [31]) was 16 µM (≈ 13.2 µg/mL), the MIC (Escherichia coli [32]) was 16 µM (≈ 13.2 µg/mL) and the MIC (Pseudomonas aeruginosa [33]) was 128 µM (≈ 105 µg/mL). For the same compound, the MIC (Pseudomonas aeruginosa [34]) was 16 µM (≈ 13.2 µg/mL), the “fold change (FC)” value (Staphylococcus aureus [35]) was 8 and the “fold change (FC)” value (Staphylococcus aureus [36]) was 512. For the same compound, the “fold change (FC)” value (Escherichia coli [37]) was 8 and the “fold change (FC)” value (Escherichia coli [38]) was 64.
